Drawing on US5716971A, “Pyridine derivatives, their production and use” (Takeda Chemical Industries, Ltd., priority 1993, dated 1998), this text covers inhibition and inhibition in vivo for 20 compounds.

Like-named read-outs stand apart in the source and are kept apart here.

Assay [1] deals with specimen of rat aorta. Put plainly: Vasorelaxation activity in a specimen of rat aorta: contraction caused by TEA and BaCl2. To be noted: TEA (30-45 mM) and BaCl2 (0.3 mM) contraction, read-out: constriction inhibitory ratio. On the procedure: Vasorelaxation activity in a specimen of rat aorta Effects on contraction caused by tetraethylammonium chloride (TEA) and barium chloride (BaCl2)
(§1) Male Wister rats (10 to 13 week old were employed for the experiment. After dehematization, the aorta was excised and a ring specimen (5 mm length) was prepared. The specimen was suspended in a bath filled with oxygenated (95% O2 -5%CO2) Krebs solution (36° C.). The ring specimen was fixed at one end and the other end was connected to a transducer (Nippon Koden) for recording tension to determine the tension. After a stabilization period of one hour, TEA (30-45 mM) and BaCl2 (0.3 mM) were added to the bath to cause vasoconstriction. After the constriction had reached a steady state (after about 15 minutes), a test compound was added to the bath and its relaxation activity was measured.

Assay [2] has as its system specimen of rat aorta. Kind of assay: Vasorelaxation activity in a specimen of rat aorta: contraction caused by KCl. To be noted: read-out: constriction inhibitory ratio. On the procedure:
as §1
Vasorelaxation activity in a specimen of rat aorta Effects on contraction caused by potassium chloride (KCl)
The same experiment was conducted as in Experiment 1, excepting the use of KCl ([…]) instead of TEA and BaCl2

Assay [3] has as its system Spontaneously hypertensive rats. Put plainly: Hypotensive activity in rats (Tail Cuff Method), oral. Type of assay: in vivo. To be noted: Rattus norvegicus, 1 mg/kg, SHR. On the procedure:
Hypotensive activity in rats (Tail Cuff Method)
Spontaneously hypertensive rats (SHR, male, 20 to 23 week old) were warmed up to 36° C. The blood pressure at the tail aorta was measured by the tail cuff method. The blood pressure was measured three times, i.e. before oral administration of the test compound, two hours after the administration and five hours after the administration. The test compound was orally administered in the state of a suspension in gum arabic.
Maximal, hypotensive effect against the blood pressure before the administration is shown as % pre. in Table 66. As a result, it is apparent that the compounds of this invention show hypotensive activity.

Where [4] appears, read: after 2 hours, read-out: Maximal hypotensive effect against blood pressure before administration (% pre.), after 2 hours.
[5] abbreviates: after 5 hours, read-out: Maximal hypotensive effect against blood pressure before administration (% pre.), after 5 hours.

Consider `CCCCO/N=C(/c1cc(Br)ccc1O)c1ncccc1O` [Compound 18], for which, in assay [1], the inhibition at 3 µM came out at 41% and the inhibition at 10 µM came out at 63%.

`CC(C)(C)O/N=C(/c1cc(Br)c(F)cc1O)c1ncccc1O` [Compound 68, (Z)-2-(5-bromo-4-fluoro-2-hydroxybenzoyl)-3-hydroxypyridine O-t-butyloxime]: the values for the inhibition at 1 µM in assay [2] and in assay [1] were 4% and 92%, respectively.

For `CC(C)O/N=C(/c1cc(Br)ccc1O)c1ncccc1O` [Compound 19, (Z)-2-(5-bromo-2-hydroxybenzoyl)-3-hydroxypyridine O-i-propyloxime], the inhibition at 1 µM was -5% in assay [2] and 58% in assay [1]. Moreover, the figures for the inhibition at 3 µM in assay [2] and in assay [1] were 6% and 95%, respectively.

For the compound `CCOc1cc(O)c(/C(=N/OC(C)(C)C)c2ncccc2O)cc1Cl` [Compound 160], the inhibition at 1 µM came out at 18% in assay [2] and 100% in assay [1].

For the compound `Cc1cc(/C(=N/OC(C)(C)C)c2ncccc2O)c(O)cc1F` [Compound 111, (Z)-2-(4-fluoro-2-hydroxy-5-methylbenzoyl)-3-hydroxy pyridine O-t-butyloxime], in assay [2], the inhibition at 1 µM amounted to 0% and the inhibition at 3 µM is 0%. Also, in assay [1], the inhibition at 1 µM came out at 81% and the inhibition at 3 µM stood at 92%.

`CC(C)(C)O/N=C(/c1cc(Br)ccc1O)c1cccc[n+]1[O-]` [Compound 89, (Z)-2-(5-bromo-2-hydroxybenzoyl)pyridine N-oxide O-t-butyloxime]: the inhibition at 3 µM stood at 11% in assay [2] and 55% in assay [1]. Also, the figures for the inhibition at 10 µM in assay [2] and in assay [1] were 32% and 85%, respectively.

`CC(C)(C)O/N=C(/c1cc(C(F)(F)F)ccc1O)c1ncccc1O` [Compound 4, (Z)-2-(5-trifluoromethyl-2-hydroxybenzoyl)-3-hydroxypyridine O-t-butyloxime]: in assay [2], the inhibition at 1 µM is -2% and the inhibition at 3 µM worked out at 7%. In addition, in assay [1], the inhibition at 1 µM turned out to be 38% and the inhibition at 3 µM was 79%.

`CC(C)(C)O/N=C(/c1cc(Cl)c(Cl)cc1O)c1c(O)ccc[n+]1[O-]` [Compound 122, (Z)-2-(4,5-dichloro-2-hydroxybenzoyl)-3-hydroxypyridine N-oxide O-t-butyloxime]: the inhibition in vivo at 1 mg/kg in assay [3] (setting [4]) came out at 30%; in assay [3] (setting [5]), 24%. Besides, the inhibition at 1 µM in assay [2] amounted to 0%; in assay [1], 100%.

Consider `CC(C)(C)O/N=C(/c1cc(Cl)ccc1O)c1ncccc1Cl` [Compound 147, (Z)-2-(5-chloro-2-hydroxybenzoyl)-3-chloro pyridine O-t-butyloxime], for which the inhibition at 1 µM in assay [2] is 16%; in assay [1] it was 100%.

Turning to `CC(C)(C)O/N=C(/c1cc(C#N)ccc1O)c1ncccc1O` [Compound 9, (Z)-2-(5-cyano-2-hydroxybenzoyl)-3-hydroxypyridine O-t-butyloxime], in assay [2], the inhibition at 3 µM was determined as 0% and the inhibition at 10 µM stood at 10%. Further, in assay [1], the inhibition at 3 µM was 22% and the inhibition at 10 µM amounted to 82%.

As to `CC(C)(C)O/N=C(/c1cc(F)ccc1O)c1ncccc1O` [Compound 8, (Z)-2-(5-fluoro-2-hydroxybenzoyl)-3-hydroxypyridine O-t-butyloxime], the figures for the inhibition at 1 µM in assay [2] and in assay [1] were -9% and 16%, respectively. Further, the inhibition at 3 µM in assay [2] was -2%; in assay [1], 93%.

Consider `CC(C)(C)O/N=C(/c1cc(C=O)ccc1O)c1ncccc1O` [Compound 117], for which, in assay [2], the inhibition at 1 µM was 4%, the inhibition at 3 µM was found to be 12% and the inhibition at 10 µM was found to be 32%. Also, in assay [1], the inhibition at 1 µM amounted to 10%, the inhibition at 3 µM was found to be 52% and the inhibition at 10 µM worked out at 99%.

On to `Cc1cc(O)c(/C(=N/OC(C)(C)C)c2c(O)ccc[n+]2[O-])cc1C` [Compound 125, (Z)-2-(2-hydroxy-4,5-dimethyl-benzoyl)-3-hydroxy pyridine N-oxide O-t-butyloxime], for which, in assay [2], the inhibition at 3 µM was 1% and the inhibition at 10 µM was found to be 8%. Also, in assay [1], the inhibition at 3 µM came to 25% and the inhibition at 10 µM turned out to be 78%.

For the compound `CC(C)(C)O/N=C(/c1cc(Br)c(F)cc1O)c1c(O)ccc[n+]1[O-]` [Compound 69, (Z)-2-(5-bromo-4-fluoro-2-hydroxybenzoyl)-3-hydroxypyridine N-oxide O-t-butyloxime], the inhibition in vivo at 1 mg/kg was 26% in assay [3] (setting [4]) and 19% in assay [3] (setting [5]). In addition, the inhibition at 1 µM in assay [2] turned out to be 0%; in assay [1] it was 100%.

Regarding `COc1cc(O)c(/C(=N/OC(C)(C)C)c2c(O)ccc[n+]2[O-])cc1Br` [Compound 121, (Z)-2-(5-bromo-2-hydroxy-4-methoxybenzoyl)-3-hydroxy pyridine N-oxide O-t-butyloxime], in assay [2], the inhibition at 3 µM stood at 0% and the inhibition at 10 µM stood at 0%. Further, in assay [1], the inhibition at 1 µM was 3%, the inhibition at 3 µM amounted to 57% and the inhibition at 10 µM stood at 82%.

With `Cc1cc(O)c(/C(=N/OC(C)(C)C)c2ncccc2O)cc1C` [Compound 106, (Z)-2-(2-hydroxy-4,5-dimethylbenzoyl)-3-hydroxy pyridine O-t-butyloxime], in assay [2], the inhibition at 1 µM worked out at 0%, the inhibition at 3 µM was found to be 5% and the inhibition at 10 µM is 39%. In assay [1], the inhibition at 1 µM came to 2%, the inhibition at 3 µM is 56% and the inhibition at 10 µM came to 100%.

As for `CC(C)(C)O/N=C(/c1cc([N+](=O)[O-])ccc1O)c1c(O)ccc[n+]1[O-]` [Compound 64, (Z)-2-(2-hydroxy-5-nitrobenzoyl)-3-hydroxypyridine N-oxide O-t-butyloxime], the inhibition at 3 µM in assay [2] is 0%; in assay [1], 43%. The results for the inhibition at 10 µM in assay [2] and in assay [1] were 4% and 100%, respectively.

On to `Cc1cc(O)c(/C(=N/OC(C)(C)C)c2c(O)ccc[n+]2[O-])cc1F` [Compound 127, (Z)-2-(5-fluoro-2-hydroxy-4-methylbenzoyl)-3-hydroxy pyridine N-oxide O-t-butyloxime], for which, in assay [2], the inhibition at 3 µM was 0% and the inhibition at 10 µM was found to be 0%. In addition, in assay [1], the inhibition at 1 µM came to 8%, the inhibition at 3 µM came out at 85% and the inhibition at 10 µM stood at 100%.

Turning to `Cc1cc(O)c(/C(=N/OC(C)(C)C)c2ncccc2O)cc1F` [Compound 114, (Z)-2-(5-fluoro-2-hydroxy-4-methylbenzoyl)-3-hydroxy pyridine O-t-butyloxime], the results for the inhibition at 1 µM in assay [2] and in assay [1] were 0% and 65%, respectively. For the same compound, the results for the inhibition at 3 µM in assay [2] and in assay [1] were 0% and 89%, respectively.

On to `CC(C)(C)O/N=C(/c1ccc(F)cc1O)c1ncccc1O` [Compound 30, (Z)-2-(4-fluoro-2-hydroxybenzoyl)-3-hydroxypyridine O-t-butyloxime], for which, in assay [2], the inhibition at 3 µM came out at 1% and the inhibition at 10 µM came to 18%. Moreover, in assay [1], the inhibition at 1 µM came to 4%, the inhibition at 3 µM was determined as 50% and the inhibition at 10 µM was determined as 92%.
